# Like-named read-outs stand apart in the source and are kept apart here.
# Key:
# HUVECs = test: High-content imaging cytotoxicity in HUVECs, 24 h; type: cell-based, human; details: Homo sapiens, HUVEC, 24 h, HUVEC; for viability at 0.01 µM / activity at 0.01 µM / viability at 0.1 µM / activity at 0.1 µM / viability at 1 µM / activity at 1 µM / viability at 10 µM / activity at 10 µM / viability at 100 µM / activity at 100 µM: 0.00 µM = 100.00; for viability at 0.1 µM / activity at 0.1 µM: 0.10 µM
# In short: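 Confluent HUVEC monolayers, passages 1–5, received test chemicals for 24 h. Cytotoxicity was scored from triple-stain high-content images, with PODs defined by a one-SD deviation from 0.5% DMSO vehicle controls.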
# [1] = tested on: iCell endothelial cells (human iPSC-derived ECs); test: Tube formation (tubulogenesis) assay in iCell endothelial cells, 18 h; type: cell-based; details: Homo sapiens, Endothelial cell, 18 hr; for activity at 0.1 µM: 0.10 µM
# In short: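 Tube formation was measured by calcein AM imaging after overnight compound exposure (37°C, 0.5% DMSO vehicle) of human iPSC-derived ECs, 7,500/well, on reduced-growth-factor Geltrex in starvation medium. Vehicle-normalized data fitted to four-parameter logistic; POD set at one vehicle SD; without response, 100 μM taken as NOAEL.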
# [2] = HUVECs, 24 hr, read-out: huvec.cyto.24hr
# [3] = HUVECs, 24 hr, read-out: huvec.mito.24hr
# [4] = HUVECs, 24 hr, read-out: huvec.mitoint.24hr
# [5] = HUVECs, 24 hr, read-out: huvec.nma.24hr
# [6] = HUVECs, 24 hrs, read-out: huvec.tc.24hrs
# [7] = iPSC-EC tube formation, 0.00 µM control = 100.00, read-out: endo.mtl.18hr
# [8] = iPSC-EC tube formation, 0.00 µM control = 100.00, read-out: endo.tlps.18hr
# [9] = iPSC-EC tube formation, 0.00 µM control = 100.00, read-out: endo.tta.18hr
# [10] = iPSC-EC tube formation, 0.00 µM control = 100.00, read-out: endo.ttl.18hr
smiles,measurement,setting,value
Oc1cc(Cl)c(-c2cc(Cl)ccc2Cl)cc1Cl [4-OH-PCB 52],minimal effective concentration,"HUVECs; cyto, 24 hr, read-out: POD huvec.cyto.24hr",1 µM
same,minimal effective concentration,"HUVECs; mito, 24 hr, read-out: POD huvec.mito.24hr",1.1 µM
same,minimal effective concentration,"HUVECs; mitoint, 24 hr, read-out: POD huvec.mitoint.24hr",2.32 µM
same,minimal effective concentration,"HUVECs; nma, 24 hr, read-out: POD huvec.nma.24hr",100 µM
same,minimal effective concentration,"HUVECs; tc, 24 hr, read-out: POD huvec.tc.24hr",1 µM
same,minimal effective concentration,"[1]; endothelial cells (endo), tube formation mtl, read-out: POD endo.mtl.18hr",9.52 µM
same,minimal effective concentration,"[1]; endothelial cells (endo), tube formation tlps, read-out: POD endo.tlps.18hr",8.32 µM
same,minimal effective concentration,"[1]; endothelial cells (endo), tube formation tta, read-out: POD endo.tta.18hr",15 µM
same,minimal effective concentration,"[1]; endothelial cells (endo), tube formation ttl, read-out: POD endo.ttl.18hr",15.2 µM
COc1ccc(-c2ccc(Cl)cc2)cc1 [4'-OMe PCB3],viability at 0.01 µM,HUVECs; [2],87.9%
same,activity at 0.01 µM,HUVECs; [3],86.7%
same,activity at 0.01 µM,HUVECs; [4],91.6%
same,activity at 0.01 µM,HUVECs; [5],101%
same,viability at 0.1 µM,HUVECs; [2],99.3%
same,activity at 0.1 µM,HUVECs; [3],98.5%
same,activity at 0.1 µM,HUVECs; [4],97.3%
same,activity at 0.1 µM,HUVECs; [5],98.2%
same,viability at 1 µM,HUVECs; [2],94.1%
same,activity at 1 µM,HUVECs; [3],93.8%
same,activity at 1 µM,HUVECs; [4],91%
same,activity at 1 µM,HUVECs; [5],96.4%
same,viability at 10 µM,HUVECs; [2],94.1%
same,activity at 10 µM,HUVECs; [3],92.9%
same,activity at 10 µM,HUVECs; [4],94%
same,activity at 10 µM,HUVECs; [5],92.3%
same,viability at 100 µM,HUVECs; [2],70.2%
same,activity at 100 µM,HUVECs; [3],70.1%
same,activity at 100 µM,HUVECs; [5],73.7%
same,minimal effective concentration,"HUVECs; HUVECs, 24 hr, top concentration 100.00 µM, read-out: huvec.cyto.24hr POD",8.6 µM
same,minimal effective concentration,"HUVECs; HUVECs, 24 hr, top concentration 100.00 µM, read-out: huvec.mito.24hr POD",5.97 µM
same,minimal effective concentration,"HUVECs; HUVECs, 24 hr, top concentration 100.00 µM, read-out: huvec.mitoint.24hr POD",32 µM
same,minimal effective concentration,"HUVECs; HUVECs, 24 hr, top concentration 100.00 µM, read-out: huvec.nma.24hr POD",1.41 µM
same,viability at 0.01 µM,HUVECs; [6],87.9%
same,viability at 0.1 µM,HUVECs; [6],99.3%
same,viability at 1 µM,HUVECs; [6],94.1%
same,viability at 10 µM,HUVECs; [6],94.1%
same,viability at 100 µM,HUVECs; [6],70.2%
same,minimal effective concentration,"HUVECs; HUVECs, 24 hrs, top concentration 100.00 µM, read-out: huvec.tc.24hrs POD",8.6 µM
same,activity at 0.01 µM,[1]; [7],101%
same,activity at 0.01 µM,[1]; [8],95.9%
same,activity at 0.01 µM,[1]; [9],157%
same,activity at 0.01 µM,[1]; [10],149%
same,activity at 0.1 µM,[1]; [7],102%
same,activity at 0.1 µM,[1]; [8],127%
same,activity at 0.1 µM,[1]; [9],130%
same,activity at 0.1 µM,[1]; [10],124%
same,activity at 1 µM,[1]; [7],96%
same,activity at 1 µM,[1]; [8],95%
same,activity at 1 µM,[1]; [9],127%
same,activity at 1 µM,[1]; [10],123%
same,activity at 10 µM,[1]; [7],76%
same,activity at 10 µM,[1]; [8],82.1%
same,activity at 10 µM,[1]; [9],58.6%
same,activity at 10 µM,[1]; [10],56.5%
same,activity at 100 µM,[1]; [7],65.6%
same,activity at 100 µM,[1]; [8],33%
same,activity at 100 µM,[1]; [9],46.5%
same,activity at 100 µM,[1]; [10],46.3%
same,minimal effective concentration,"[1]; iPSC-EC tube formation, top concentration 100.00 µM, read-out: endo.mtl.18hr POD",3.4 µM
same,minimal effective concentration,"[1]; iPSC-EC tube formation, top concentration 100.00 µM, read-out: endo.tlps.18hr POD",12.3 µM
same,minimal effective concentration,"[1]; iPSC-EC tube formation, top concentration 100.00 µM, read-out: endo.tta.18hr POD",7.76 µM
same,minimal effective concentration,"[1]; iPSC-EC tube formation, top concentration 100.00 µM, read-out: endo.ttl.18hr POD",7.16 µM

# Reference: publication PMC7377239, “Cardiovascular Effects of Polychlorinated Biphenyls and Their Major Metabolites” (Environmental Health Perspectives, 2020)
